Data reported in patent US5656603A (Loyola University of Chicago, priority 1995, dated 1997).
pIC50: −log10 of the molar value.

Tests used:
Format in all cases: biochemical
prolidase = target: T1, prolidase (Sus scrofa, UniProt A0A5G2QQV1); test: Specificity of apstatin: prolidase; settings: purified, porcine kidney; Arg-Pro, pH 8.0, HPLC-2
T1 construct: Purified porcine kidney prolidase and purified porcine kidney aminopeptidase M was obtained from Sigma; purchased Sigma (St. Louis, Mo.); host or cells: porcine kidney
T1 sequence (A0A5G2QQV1 1-463): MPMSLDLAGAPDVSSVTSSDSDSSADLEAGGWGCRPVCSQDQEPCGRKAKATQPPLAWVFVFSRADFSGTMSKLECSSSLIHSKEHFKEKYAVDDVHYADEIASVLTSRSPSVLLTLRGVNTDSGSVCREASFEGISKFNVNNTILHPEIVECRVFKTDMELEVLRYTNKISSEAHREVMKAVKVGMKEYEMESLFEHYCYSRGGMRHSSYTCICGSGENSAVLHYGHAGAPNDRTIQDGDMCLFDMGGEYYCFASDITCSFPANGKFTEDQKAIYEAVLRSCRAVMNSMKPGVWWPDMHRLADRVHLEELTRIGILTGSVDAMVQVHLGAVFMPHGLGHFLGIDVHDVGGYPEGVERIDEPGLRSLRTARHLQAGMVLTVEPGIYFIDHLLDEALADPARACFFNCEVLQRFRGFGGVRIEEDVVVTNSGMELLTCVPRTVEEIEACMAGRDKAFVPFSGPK
Source text: Enzymes--Membrane-bound aminopeptidase P was purified to homogeneity from bovine lung (14) and from rat lung. Partially purified membrane-bound aminopeptidase P from human lung was obtained by treatment of lung microsomes with phosphatidylinositol-specific phospholipase C (B. thuringiensis) (ICN, Costa Mesa, Calif.) followed by centrifugation as described previously (14). Membrane dipeptidase was purified from rat lung microsomes (manuscript in preparation). Recombinant E. coli aminopeptidase P (22) and purified lamb kidney prolyl oligopeptidase (23) were generally supplied by Dr. Tadashi Yoshimoto (Nagasaki University). Purified porcine kidney prolidase and purified porcine kidney aminopeptidase M was obtained from Sigma (St. Louis, Mo.).
(§1) Specificity of Apstatin--Apstatin was assayed for its ability to inhibit several other peptidases. […] Unless otherwise indicated, the source of each enzyme activity was a detergent extract of bovine lung prepared as described in (12-13). Activities were determined by a modification of the fluorescent assay described above (indicated by "FLUO") or by HPLC separation and quantitation of reaction products using the method described in (12) (method "HPLC-1") or the method described below (method "HPLC-2"). […]

[1] = target: dipeptidyl-peptidase I-like activity; test: Specificity of apstatin: dipeptidyl-peptidase I-like activity; settings: detergent extract of bovine lung; Gly-Phe-β-NA, pH 6.5, HPLC-2
Protocol: as §1

endopeptidase 24.15 = target: T2, endopeptidase 24.15 (Rattus norvegicus, UniProt P24155); test: Specificity of apstatin: endopeptidase 24.15; settings: rat brain synaptosomes; Bk(2-9), pH 6.8, HPLC-1
T2 construct: endopeptidase 24.15 (EC 3.4.24.15) (rat brain synaptosomes); from tissue; host or cells: rat brain synaptosomes
Protocol: as §1

endopeptidase 24.11 = target: T3, endopeptidase 24.11 (Bos taurus, UniProt E1BPL8); test: Specificity of apstatin: endopeptidase 24.11; settings: detergent extract of bovine lung; Suc-Ala-Ala-Phe-7-amido-4-methyl-coumarin, pH 6.8, HPLC-1
T3 construct: Unless otherwise indicated, the source of each enzyme activity was a detergent extract of bovine lung; from tissue; host or cells: detergent extract of bovine lung
T3 sequence (E1BPL8 1-750): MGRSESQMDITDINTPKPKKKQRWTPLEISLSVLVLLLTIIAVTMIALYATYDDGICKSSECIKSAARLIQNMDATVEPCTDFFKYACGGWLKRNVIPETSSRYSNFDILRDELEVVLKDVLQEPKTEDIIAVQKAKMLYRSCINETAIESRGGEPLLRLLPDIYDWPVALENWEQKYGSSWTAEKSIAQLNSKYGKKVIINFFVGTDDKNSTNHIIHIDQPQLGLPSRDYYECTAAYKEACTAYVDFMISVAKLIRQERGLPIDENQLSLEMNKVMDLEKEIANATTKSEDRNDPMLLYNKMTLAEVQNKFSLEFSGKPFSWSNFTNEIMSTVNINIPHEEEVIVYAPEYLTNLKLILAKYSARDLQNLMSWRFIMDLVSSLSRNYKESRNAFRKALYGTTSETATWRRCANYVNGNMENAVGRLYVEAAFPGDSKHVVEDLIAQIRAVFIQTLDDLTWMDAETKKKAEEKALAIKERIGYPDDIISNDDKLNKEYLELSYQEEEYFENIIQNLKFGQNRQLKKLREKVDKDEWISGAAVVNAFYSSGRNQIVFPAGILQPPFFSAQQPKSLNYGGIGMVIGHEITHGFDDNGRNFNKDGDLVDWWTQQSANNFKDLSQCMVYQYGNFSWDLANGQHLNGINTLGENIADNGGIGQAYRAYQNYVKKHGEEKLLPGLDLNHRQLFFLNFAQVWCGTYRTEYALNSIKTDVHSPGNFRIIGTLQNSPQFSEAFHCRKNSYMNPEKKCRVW
Protocol: as §1

T2 sequence (P24155 whole entry): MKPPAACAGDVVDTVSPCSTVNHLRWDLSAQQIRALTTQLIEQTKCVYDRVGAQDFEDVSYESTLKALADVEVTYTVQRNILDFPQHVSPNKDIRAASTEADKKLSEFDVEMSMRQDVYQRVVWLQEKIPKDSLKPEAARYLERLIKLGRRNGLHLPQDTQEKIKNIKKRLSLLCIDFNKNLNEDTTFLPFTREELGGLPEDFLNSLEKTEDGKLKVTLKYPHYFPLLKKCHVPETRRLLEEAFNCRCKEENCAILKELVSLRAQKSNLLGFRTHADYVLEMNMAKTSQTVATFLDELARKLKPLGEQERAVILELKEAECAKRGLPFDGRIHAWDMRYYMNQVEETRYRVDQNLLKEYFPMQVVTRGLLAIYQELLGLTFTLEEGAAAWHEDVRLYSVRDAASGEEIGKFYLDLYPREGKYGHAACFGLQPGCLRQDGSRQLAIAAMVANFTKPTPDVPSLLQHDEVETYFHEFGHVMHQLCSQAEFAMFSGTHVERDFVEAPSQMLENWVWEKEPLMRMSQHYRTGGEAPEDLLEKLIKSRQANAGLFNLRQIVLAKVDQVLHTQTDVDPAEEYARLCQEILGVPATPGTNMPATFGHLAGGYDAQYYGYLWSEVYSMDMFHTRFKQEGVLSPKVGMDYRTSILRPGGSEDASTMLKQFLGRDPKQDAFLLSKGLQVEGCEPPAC

For `C[C@H](NC(=O)[C@@H]1CCCN1C(=O)[C@@H]1CCCN1C(=O)[C@@H](O)[C@H](N)Cc1ccccc1)C(N)=O` [apstatin, N-[(2S, 3R)-3-amino-2-hydroxy-4-phenylbutanoyl]-L-prolyl-L-prolyl-Lalaninamide], the pIC50 (prolidase) was 5.31, the pIC50 [1] was < 3.10 and the pIC50 (endopeptidase 24.15) was < 3.10. The pIC50 (endopeptidase 24.11) was < 3.10.
